Among the data in patent publication US11498923B2 (Merck Sharp & Dohme Corp., priority 2017, dated 2022) are Ki values, retold here.

The structures appear in SMILES notation.

T1 sequence (P29274 whole entry): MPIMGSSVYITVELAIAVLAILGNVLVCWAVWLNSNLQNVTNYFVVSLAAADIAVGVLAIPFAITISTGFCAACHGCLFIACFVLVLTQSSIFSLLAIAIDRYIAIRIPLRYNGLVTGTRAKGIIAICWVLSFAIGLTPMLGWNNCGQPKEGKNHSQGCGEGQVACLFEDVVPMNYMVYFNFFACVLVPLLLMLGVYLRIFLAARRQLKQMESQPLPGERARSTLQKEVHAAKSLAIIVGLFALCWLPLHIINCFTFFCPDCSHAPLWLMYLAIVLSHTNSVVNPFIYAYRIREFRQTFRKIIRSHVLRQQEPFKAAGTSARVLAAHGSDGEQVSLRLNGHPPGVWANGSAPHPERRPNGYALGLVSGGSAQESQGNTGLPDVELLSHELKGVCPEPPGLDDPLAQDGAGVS

This assay concerns the target T1, human A2a receptor (Homo sapiens, UniProt P29274).
T1 construct: purchased Perkin-Elmer RBHA2AM400UA; host or cells: HEK293 cells, used as a membrane preparation
Description: A2a receptor competition binding assay (Scintillation Proximity). The note with it: membranes from HEK293 cells expressing human A2a receptor; 0.5 nM tritiated ligand; Cheng-Prusoff; read-out: A2a Ki. A digest of the protocol:
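Ki values were obtained with the Cheng-Prusoff equation from competition curves against 0.5 nM tritiated antagonist, scintillation proximity counting after 1 h room-temperature incubation. Receptor came from HEK293 membranes pretreated with adenosine deaminase; compound final range 3000–0.15 nM, buffer Ca/Mg-free PBS with 10 mM MgCl2.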
Turning to `Nc1nc2c(F)cccc2c2nc(Cc3ccc(C(=O)NCC(c4cccnc4)N4CCOCC4)cc3)cn12` (stereo not shown) [Ex-88, 4-((5-amino-7-fluoroimidazo[1,2-c]quinazolin-2-yl)methyl)-N-(2-morpholino-2-(pyridin-3-yl)ethyl)benzamide], the Ki turned out to be 84 nM.
To `COc1cccc2c1nc(N)n1cc(Cc3ccc(C(=O)Nc4ccccc4)cc3)nc21` [Ex-89, 4-((5-amino-7-methoxyimidazo[1,2-c]quinazolin-2-yl)methyl)-N-phenylbenzamide] belongs 6.3 nM; to `Nc1nc2c(F)cccc2c2nc(Cc3ccc(C(=O)NCCN4CCOCC4)cc3)cn12` [Ex-90, 4-((5-amino-7-fluoroimidazo[1,2-c]quinazolin-2-yl)methyl)-N-(2-morpholinoethyl)benzamide], 66 nM.
Then `Nc1nc2c(F)cccc2c2nc(Cc3ccc(-c4nnc(CN5CCOCC5)o4)cc3)cn12` [Ex-91, 7-fluoro-2-(4-(5-(morpholinomethyl)-1,3,4-oxadiazol-2-yl)benzyl)imidazo[1,2-c]quinazolin-5-amine], with 65 nM.
As for `Nc1nc2c(F)cccc2c2nc(Cc3cccc4c3OCCN4C(=O)Cc3ccccn3)cn12` [Ex-92, 1-(8-((5-amino-7-fluoroimidazo[1,2-c]quinazolin-2-yl)methyl)-2,3-dihydro-4H-benzo[b][1,4]oxazin-4-yl)-2-(pyridin-2-yl)ethan-1-one], the Ki was 13 nM.
Then `COc1ccc(-c2cn(Cc3cn4c(N)nc5c(OC)cccc5c4n3)nn2)cc1` [Ex-93, 7-methoxy-2-((4-(4-methoxyphenyl)-1H-1,2,3-triazol-1-yl)methyl)imidazo[1,2-c]quinazolin-5-amine], with 2.5 nM; and `Nc1nc2c(F)cccc2c2nc(Cn3cc(-c4cc(C(F)(F)F)cc(C(F)(F)F)c4)nn3)cn12` [Ex-94, 2-((4-(3,5-bis(trifluoromethyl)phenyl)-1H-1,2,3-triazol-1-yl)methyl)-7-fluoroimidazo[1,2-c]quinazolin-5-amine], with 150 nM.
For the compound `Nc1nc2c(F)cccc2c2nc(Cn3cc(-c4ccc(OC(F)(F)F)cc4)nn3)cn12` [Ex-95, 7-fluoro-2-((4-(4-(trifluoromethoxy)-phenyl)-1H-1,2,3-triazol-1-yl)methyl)-imidazo[1,2-c]-quinazolin-5-amine], the Ki is 6.8 nM.
To `Nc1nc2c(F)cccc2c2nc(Cn3cc(-c4cccnc4)nn3)cn12` [Ex-96, 7-fluoro-2-((4-(pyridin-3-yl)-1H-1,2,3-triazol-1-yl)methyl)imidazo[1,2-c]quinazolin-5-amine] belongs 36 nM.
Then `COc1ccc(N2CCN(CCc3cn(Cc4cn5c(N)nc6c(F)cccc6c5n4)nn3)CC2)cc1` [Ex-97, 7-fluoro-2-((4-(2-(4-(4-methoxyphenyl)piperazin-1-yl)ethyl)-1H-1,2,3-triazol-1-yl)methyl)imidazo[1,2-c]quinazolin-5-amine], with 96 nM; and `Nc1nc2c(F)cccc2c2nc(Cn3cc(-c4ccc(-c5cccnc5)cc4)nn3)cn12` [Ex-98, 7-fluoro-2-((4-(4-(pyridin-3-yl)phenyl)-1H-1,2,3-triazol-1-yl)methyl)imidazo[1,2-c)quinazolin-5-amine], with 6.7 nM.
Then `COc1cccc2c1nc(N)n1cc(Cn3cc(COC(C)=O)nn3)nc21` [Ex-99, (1-((5-amino-7-methoxyimidazo[1,2-c]quinazolin-2-yl)methyl)-1H-1,2,3-triazol-4-yl)methyl acetate], with 11.2 nM.
`Nc1nc2c(F)cccc2c2nc(CCc3ccccc3)cn12` [Ex-100, 7-fluoro-2-phenethylimidazo[1,2-c]quinazolin-5-amine]: the Ki came to 4.4 nM.
Then `Nc1nc2c(F)cccc2c2nc(CCc3ccccn3)cn12` [Ex-101, 7-fluoro-2-(2-(pyridin-2-yl)ethyl)imidazo[1,2-c]quinazolin-5-amine], with 8.5 nM.
Then `COc1cccc2c1nc(N)n1cc(CCc3ccccc3)nc21` [Ex-102, 7-methoxy-2-phenethylimidazo[1,2-c]quinazolin-5-amine], with 3.8 nM; and `COc1cccc2c1nc(N)n1cc(C(=O)c3ccccc3)nc21` [Ex-103, (5-amino-7-methoxyimidazo[1,2-c]quinazolin-2-yl)(phenyl)methanone], with 26.4 nM.
Then `Nc1nc2ccccc2c2nc(-c3ccc(Br)cc3)cn12` [Ex-104, 2-(4-bromophenyl)imidazo[1,2-c]quinazolin-5-amine], with 407 nM; and `Nc1nc2ccccc2c2nc(-c3cccc(Br)c3)cn12` [Ex-105, 2-(3-bromophenyl)imidazo[1,2-c]quinazolin-5-amine], with 160 nM; and `Nc1nc2c(F)cccc2c2nc(-c3ccccc3)cn12` [Ex-106, 7-fluoro-2-phenylimidazo[1,2-c]quinazolin-5-amine], with 7.1 nM.
As to `Nc1nc2c(F)cccc2c2nc(-c3ccccc3CO)cn12` [Ex-107, (2-(5-amino-7-fluoroimidazo[1,2-c]quinazolin-2-yl)phenyl)methanol], the Ki is 4.3 nM.
On to `CS(=O)(=O)Nc1nc2c(F)cccc2c2nc(-c3ccccc3CN3CCN(c4ccccn4)CC3)cn12` [Ex-108, N-(7-fluoro-2-(2-((4-(pyridin-2-yl)piperazin-1-yl)methyl)-phenyl)-imidazo[1,2-c]-quinazolin-5-yl)-methanesulfonamide], for which the inhibitory constant (Ki) came to 130 nM.
In the case of `CC1(O)CCN(Cc2cn3c(N)nc4ccccc4c3n2)CC1` [Ex-109, 1-((5-aminoimidazo[1,2-c]quinazolin-2-yl)methyl)-4-methylpiperidin-4-ol], the Ki was found to be 2460 nM.
Consider `COc1cccc2c1nc(N)n1cc(CN3CCN(c4ccccc4)CC3)nc21` [Ex-110, 7-methoxy-2-((4-phenylpiperazin-1-yl)methyl)imidazo[1,2-c]quinazolin-5-amine], for which the Ki was found to be 53.2 nM.
In the case of `Nc1nc2c(F)cccc2c2nc(CN3CCN(Cc4ccccc4)CC3)cn12` [Ex-111, 2-((4-benzylpiperazin-1-yl)methyl)-7-fluoroimidazo[1,2-c]quinazolin-5-amine], the inhibition constant Ki turned out to be 160 nM.
Turning to `CCN1CCN(Cc2cn3c(N)nc4c(F)cccc4c3n2)CC1` [Ex-112, 2-((4-ethylpiperazin-1-yl)methyl)-7-fluoroimidazo[1,2-c]quinazolin-5-amine], the Ki worked out at 520 nM.
To `Nc1nc2c(F)cccc2c2nc(CN3CCN(CCc4ccccc4)CC3)cn12` [Ex-113, 7-fluoro-2-((4-phenethylpiperazin-1-yl)methyl)imidazo-[1,2-c]quinazolin-5-amine] belongs 76 nM; to `Nc1nc2c(F)cccc2c2nc(CN3CCC(Cc4ccccc4)CC3)cn12` [Ex-114, 2-((4-benzylpiperidin-1-yl)methyl)-7-fluoroimidazo[1,2-c]quinazolin-5-amine], 130 nM.
To `Nc1nc2c(F)cccc2c2nc(CN3CCOCC3)cn12` [Ex-115, 7-fluoro-2-(morpholinomethyl) imidazo[1,2-c] quinazolin-5-amine] belongs 380 nM.
To `Nc1nc2ccccc2c2nc(CN3CCN(c4ccc(F)cc4F)CC3)cn12` [Ex-116, 2-((4-(2,4-difluorophenyl)piperazin-1-yl)methyl) imidazo[1,2-c] quinazolin-5-amine] belongs 1000 nM; to `Nc1nc2c(F)cccc2c2nc(CN3CCOc4ccccc43)cn12` [Ex-117, 2-((2,3-dihydro-4H-benzo[b][1,4]oxazin-4-yl)methyl)-7-fluoroimidazo[1,2-c]quinazolin-5-amine], 4 nM; to `Nc1nc2c(F)cccc2c2nc(CN3CCOc4cccnc43)cn12` [Ex-118, 2-((2,3-dihydro-4H-pyrido[3,2-b][1,4]oxazin-4-yl)methyl)-7-fluoroimidazo[1,2-c]quinazolin-5-amine], 3.9 nM.
For `Nc1nc2c(F)cccc2c2nc(CN3CCCN(c4ccccn4)CC3)cn12` [Ex-119, 7-fluoro-2-((4-(pyridin-2-yl)-1,4-diazepan-1-yl)methyl)imidazo[1,2-c]quinazolin-5-amine], the inhibition constant Ki stood at 210 nM.
Then `COc1cccc2c1nc(N)n1cc(CN3CCc4cccnc4C3)nc21` [Ex-120, 2-((5,8-dihydro-1,7-naphthyridin-7(6H)-yl)methyl)-7-methoxyimidazo[1,2-c]quinazolin-5-amine], with 4.2 nM.
Then `COc1cccc2c1nc(N)n1cc(CN3CCc4ccccc4C3)nc21` [Ex-121, 2-((3,4-dihydroisoquinolin-2(1H)-yl)methyl)-7-methoxyimidazo[1,2-c]quinazolin-5-amine], with 3.7 nM; and `COc1cccc2c1nc(N)n1cc(CN3Cc4cccnc4C3)nc21` [Ex-122, 2-((5,7-dihydro-6H-pyrrolo[3,4-b]pyridin-6-yl)methyl)-7-methoxyimidazo[1,2-c]quinazolin-5-amine], with 11 nM; and `COc1cccc2c1nc(N)n1cc(CN3Cc4ccc(F)cc4C3)nc21` [Ex-123, 2-((5-fluoroisoindolin-2-yl)methyl)-7-methoxyimidazo[1,2-c]quinazolin-5-amine], with 9.2 nM.
To `Nc1nc2c(F)cccc2c2nc(CN3Cc4ccc(F)cc4C3)cn12` [Ex-124, 7-fluoro-2-((5-fluoroisoindolin-2-yl)methyl)imidazo[1,2-c]quinazolin-5-amine] belongs 18 nM; to `Nc1nc2c(F)cccc2c2nc(CN3CCCc4cc(Br)ccc43)cn12` [Ex-125, 2-((6-bromo-3,4-dihydroquinolin-1(2H)-yl)methyl)-7-fluoroimidazo[1,2-c]quinazolin-5-amine], 8.1 nM; to `Nc1nc2c(F)cccc2c2nc(CN3Cc4ccc(Br)cc4C3)cn12` [Ex-126, 2-((5-bromoisoindolin-2-yl)methyl)-7-fluoroimidazo[1,2-c]quinazolin-5-amine], 38 nM.
Take `Nc1nc2c(F)cccc2c2nc(CN3CCc4cc(NC(=O)c5ccccn5)ccc4C3)cn12` [Ex-127, N-(2-((5-amino-7-fluoroimidazo[1,2-c]quinazolin-2-yl)methyl)-1,2,3,4-tetrahydroisoquinolin-6-yl)picolinamide]: the Ki is 64 nM.

What is called Ki is a dissociation constant, usually derived from enzyme kinetics or from competition with a known ligand.
